# Reference: publication PMC10746112, “Synthesis and Pro-Apoptotic Effects of Nitrovinylanthracenes and Related Compounds in Chronic Lymphocytic Leukaemia (CLL) and Burkitt’s Lymphoma (BL)” (Molecules, 2023)
# Test system: MUTU-I Burkitt’s lymphoma cell line
# Experiment: alamarBlue cell viability assay
# Settings: MUTU-I, 24 h, read-out: % Viable Cells Remaining MUTU-1, 1 µM, 24 h
row,Structure (SMILES),viability at 1 µM [%]
1,N#C/C=C/c1c2ccccc2cc2ccccc12 [Compound 23c],88.1
2,O/N=C/c1c2ccccc2cc2ccccc12 [Compound 32c],99.2
3,N/N=C/c1c2ccccc2cc2ccccc12 [Compound 32a],97.5
4,"O=[N+]([O-])/C=C/c1c2cccc(Cl)c2cc2c(Cl)cccc12 [Compound 19k, (E)-1,8-Dichloro-10-(2-Nitrovinyl)Anthracene]",71
5,c1ccc2c(CN3CCCCCC3)c3ccccc3cc2c1 [Compound 29a],103
6,"OCc1c2ccccc2cc2ccccc12 [Compound 26, anthracen-9-ylmethanol]",106
7,"CNCCCC12CCC(c3ccccc31)c1ccccc12 [Maprotiline, maprotiline, reference compound]",93.1
8,c1ccc2c(CN3CCCC3)c3ccccc3cc2c1 [Compound 29b],108
9,O/N=C/Cc1c2ccccc2cc2ccccc12 [Compound 32e],103
10,CC/C(=C\c1c2ccccc2cc2ccccc12)[N+](=O)[O-] [Compound 19c],88.6
11,CCN(CC)C(=O)c1c2ccccc2cc2ccccc12 [Compound 33a],105
12,O=C(c1c2ccccc2cc2ccccc12)N1CCOCC1 [Compound 33e],86.9
13,"O=[N+]([O-])/C=C/c1c2ccccc2c(-c2ccccc2)c2ccccc12 [Compound 19j, (E)-9-(2-Nitrovinyl)-10-Phenylanthracene]",68.5
14,N/N=C/c1c2ccccc2c(Cl)c2ccccc12 [Compound 32b],105

# Same assay, conditions: MUTU-I, 24 h, read-out: % Viable Cells Remaining MUTU-1, 10 µM, 24 h
row,Structure (SMILES),viability at 10 µM [%]
1,N#C/C=C/c1c2ccccc2cc2ccccc12 [Compound 23c],86.9
2,O/N=C/c1c2ccccc2cc2ccccc12 [Compound 32c],92.7
3,N/N=C/c1c2ccccc2cc2ccccc12 [Compound 32a],95.5
4,"O=[N+]([O-])/C=C/c1c2cccc(Cl)c2cc2c(Cl)cccc12 [Compound 19k, (E)-1,8-Dichloro-10-(2-Nitrovinyl)Anthracene]",-0.18
5,c1ccc2c(CN3CCCCCC3)c3ccccc3cc2c1 [Compound 29a],99
6,"OCc1c2ccccc2cc2ccccc12 [Compound 26, anthracen-9-ylmethanol]",94.9
7,"CNCCCC12CCC(c3ccccc31)c1ccccc12 [Maprotiline, maprotiline, reference compound]",72
8,c1ccc2c(CN3CCCC3)c3ccccc3cc2c1 [Compound 29b],106
9,O/N=C/Cc1c2ccccc2cc2ccccc12 [Compound 32e],94.9
10,CC/C(=C\c1c2ccccc2cc2ccccc12)[N+](=O)[O-] [Compound 19c],78
11,CCN(CC)C(=O)c1c2ccccc2cc2ccccc12 [Compound 33a],103
12,O=C(c1c2ccccc2cc2ccccc12)N1CCOCC1 [Compound 33e],85.2
13,"O=[N+]([O-])/C=C/c1c2ccccc2c(-c2ccccc2)c2ccccc12 [Compound 19j, (E)-9-(2-Nitrovinyl)-10-Phenylanthracene]",1.29
14,N/N=C/c1c2ccccc2c(Cl)c2ccccc12 [Compound 32b],82.5

# Test system: DG-75 Burkitt’s lymphoma cell line
# Experiment: alamarBlue cell viability assay
# Settings: Homo sapiens, DG-75, 48 h, read-out: % Viable Cells Remaining DG-75, 1 µM, 48 h
row,Structure (SMILES),viability at 1 µM [%]
1,N#C/C=C/c1c2ccccc2cc2ccccc12 [Compound 23c],84.2
2,O/N=C/c1c2ccccc2cc2ccccc12 [Compound 32c],92.5
3,N/N=C/c1c2ccccc2cc2ccccc12 [Compound 32a],104
4,"O=[N+]([O-])/C=C/c1c2cccc(Cl)c2cc2c(Cl)cccc12 [Compound 19k, (E)-1,8-Dichloro-10-(2-Nitrovinyl)Anthracene]",88.7
5,c1ccc2c(CN3CCCCCC3)c3ccccc3cc2c1 [Compound 29a],83.6
6,"OCc1c2ccccc2cc2ccccc12 [Compound 26, anthracen-9-ylmethanol]",102
7,"CNCCCC12CCC(c3ccccc31)c1ccccc12 [Maprotiline, maprotiline, reference compound]",102
8,c1ccc2c(CN3CCCC3)c3ccccc3cc2c1 [Compound 29b],93.2
9,O/N=C/Cc1c2ccccc2cc2ccccc12 [Compound 32e],102
10,CC/C(=C\c1c2ccccc2cc2ccccc12)[N+](=O)[O-] [Compound 19c],83.8
11,CCN(CC)C(=O)c1c2ccccc2cc2ccccc12 [Compound 33a],90.1
12,O=C(c1c2ccccc2cc2ccccc12)N1CCOCC1 [Compound 33e],86.1
13,"O=[N+]([O-])/C=C/c1c2ccccc2c(-c2ccccc2)c2ccccc12 [Compound 19j, (E)-9-(2-Nitrovinyl)-10-Phenylanthracene]",83.5
14,N/N=C/c1c2ccccc2c(Cl)c2ccccc12 [Compound 32b],94.8

# Same assay, conditions: Homo sapiens, DG-75, 48 h, read-out: % Viable Cells Remaining DG-75, 10 µM, 48 h
row,Structure (SMILES),viability at 10 µM [%]
1,N#C/C=C/c1c2ccccc2cc2ccccc12 [Compound 23c],82
2,O/N=C/c1c2ccccc2cc2ccccc12 [Compound 32c],101
3,N/N=C/c1c2ccccc2cc2ccccc12 [Compound 32a],102
4,"O=[N+]([O-])/C=C/c1c2cccc(Cl)c2cc2c(Cl)cccc12 [Compound 19k, (E)-1,8-Dichloro-10-(2-Nitrovinyl)Anthracene]",0.15
5,c1ccc2c(CN3CCCCCC3)c3ccccc3cc2c1 [Compound 29a],89.3
6,"OCc1c2ccccc2cc2ccccc12 [Compound 26, anthracen-9-ylmethanol]",93
7,"CNCCCC12CCC(c3ccccc31)c1ccccc12 [Maprotiline, maprotiline, reference compound]",65
8,c1ccc2c(CN3CCCC3)c3ccccc3cc2c1 [Compound 29b],97.2
9,O/N=C/Cc1c2ccccc2cc2ccccc12 [Compound 32e],93
10,CC/C(=C\c1c2ccccc2cc2ccccc12)[N+](=O)[O-] [Compound 19c],92.3
11,CCN(CC)C(=O)c1c2ccccc2cc2ccccc12 [Compound 33a],90.5
12,O=C(c1c2ccccc2cc2ccccc12)N1CCOCC1 [Compound 33e],80.2
13,"O=[N+]([O-])/C=C/c1c2ccccc2c(-c2ccccc2)c2ccccc12 [Compound 19j, (E)-9-(2-Nitrovinyl)-10-Phenylanthracene]",1.5
14,N/N=C/c1c2ccccc2c(Cl)c2ccccc12 [Compound 32b],100

# Test system: HG-3 CLL cell line
# Experiment: alamarBlue cell viability assay
# Settings: 10 µM, 24 h
row,Structure (SMILES),% Viability HG-3 [%]
1,CC/C(=C\c1ccccc1F)[N+](=O)[O-] [Compound 11d],0.66

# Same assay, conditions: CLL cell, 24 h, read-out: % Viability HG-3, 1 µM, 24 h
row,Structure (SMILES),viability at 1 µM [%]
1,CC/C(=C\c1ccccc1F)[N+](=O)[O-] [Compound 11d],14.5

# Same assay, conditions: CLL cell, 24 h, read-out: % Viability HG-3, 10 µM, 24 h
row,Structure (SMILES),viability at 10 µM [%]
1,CC/C(=C\c1c2ccccc2cc2ccccc12)[N+](=O)[O-] [Compound 19c],72

# Test system: PGA-1 CLL cell line
# Experiment: alamarBlue cell viability assay
# Settings: 10 µM, 24 h
row,Structure (SMILES),% Viability PGA-1 [%]
1,CC/C(=C\c1ccccc1F)[N+](=O)[O-] [Compound 11d],0.02

# Same assay, conditions: CLL cell, 24 h, read-out: % Viability PGA-1, 10 µM, 24 h
row,Structure (SMILES),viability at 10 µM [%]
1,CC/C(=C\c1c2ccccc2cc2ccccc12)[N+](=O)[O-] [Compound 19c],66
